According to US20230150951A1, “2,5- OR 2,6-DISUBSTITUTED HYDROQUINONE DERIVATIVES WITH AT LEAST ONE CARBOXY, SULFO OR AMIDO GROUP USEFUL AS MEDICAMENTS” (OM PHARMA SA, priority 2020, published 2023):
pIC50: −log10 of the molar value. Like-named read-outs stand apart in the source and are kept apart here.

Legend:
Type in all cases: cell-based
VEGFR-2 = molecular target: T1, VEGFR-2 (Homo sapiens, UniProt P35968); assay: VEGF-165 induced phosphorylation of VEGF-Receptor on HUVEC; settings: HUVEC preincubated 60 min, VEGF165 25 ng/mL 2 min; read-out: VEGFR-Phosphorylation inhibition IC50
T1 construct: endogenous in cells; host or cells: primary HUVEC

GM-CSF = assay: Cytokine release after LPS induction on human whole blood: GM-CSF
Description: (§1) Aim of this in vitro method is to assess compounds effects on release of a panel of cytokines from whole blood following lipopolysaccharide (LPS) induced inflammatory reaction. Whole blood was incubated with compounds for 1 h prior to LPS induction. Cytokine levels in blood were measured using a multiplex FACS-based panel.
(§2) IC50 values determined for the tested compounds expressed in microM [μM] and the values for the inhibition of cytokines were listed for each compound.
(§3) Effect on cytokines release after LPS induction was performed on the compounds dissolved in DMSO or H2O to reach 10-fold concentrated stock solutions and dissolved in culture media.
(§4) Test system: Whole blood was removed from a single donor (into lithium heparin coated tubes; BD Vacutainer; 367886) and diluted 1:5 with RPMI 1640 (Thermo Fisher, 61870036). Within 30 minutes of sampling, blood was incubated with compounds for 1 h prior to LPS stimulation (O111:B4—Sigma L4391; 10 ng/ml final concentration). Stimulation continued under standard cell culture conditions (37° C. with 5% CO2) overnight (18 h), after which plates were centrifuged and supernatant removed and frozen at −80° C. until used for analyses.
(§5) Dilution of test compounds: 10×concentrated solutions (concerning to the final assay concentrations) of each test compound were prepared with the appropriate solvent (in DMSO or in water). These 10× compound solutions (10 μl) were then added to 90 μl pre-diluted whole blood (whole blood: RPMI1640, 1:5) resulting in the final assay concentration.
(§6) Test method: Diluted whole blood (80 μl) was pre-incubated with compounds (10 μl) to give final assay concentrations of 100, 30, 10, 3, 1, 0.3 and 0.1×10^−6M. Blood was incubated at 37° C. with 5% CO2 for 1 h. LPS was diluted in cell culture media to a concentration of […]; 10 μl was added to the whole blood to give a final concentration of 10 ng/ml. Plates were incubated at 37° C. for 18 h. Plates were centrifuged at 3,000 RPM for 5 minutes at 4° C. and supernatant removed and frozen at −80° C. until FACS analysis was carried out.
(§7) Cytokine release was measured using a custom multiplex system (ELISA Genie) according to manufacturers instructions. Prepared samples were run on an Attune NxT flow cytometer (Thermo Fisher).
(§8) Quantification of cytokine release inhibition: known concentration standards were run as part of the cytokine panel to allow quantification of each cytokine concentration in each sample. This was carried out using FCAP Array v3.0 software.
(§9) Results: The dose response relationship on cytokine release following LPS induction of inflammatory response in whole blood was assessed for all compounds. IC50 values were determined for each compound for a panel of cytokines (GM-CSF, IFN-gamma, IL-1beta, IL-2, IL-4, IL-5, IL-6, IL-8, IL-9, IL-10, IL-12p40, IL-13, IL-17A, IL-17F, IL-18, IL-21, IL-22, IL-33, TGF-beta, TNF-alpha, TNF-beta).

TNF-alpha = assay: Cytokine release after LPS induction on human whole blood: TNFα
Description: as §1, §2, §3, §4, §5, §6, §7, §8, §9

TGF-beta = assay: Cytokine release after LPS induction on human whole blood: TGFβ
Description: as §1, §2, §3, §4, §5, §6, §7, §8, §9

IL-17F = assay: Cytokine release after LPS induction on human whole blood: IL-17F
Description: as §1, §2, §3, §4, §5, §6, §7, §8, §9

IL-21 = assay: Cytokine release after LPS induction on human whole blood: IL-21
Description: as §1, §2, §3, §4, §5, §6, §7, §8, §9

IFN-gamma = assay: Cytokine release after LPS induction on human whole blood: IFNγ
Description: as §1, §2, §3, §4, §5, §6, §7, §8, §9

[1] = Homo sapiens, LPS 10 ng/ml, 18 h, read-out: Whole Blood: GM-CSF IC50
[2] = human whole blood, inhibition of LPS induced inflammation, read-out: IC50 GM-CSF
[3] = Homo sapiens, LPS 10 ng/ml, 18 h, read-out: Whole Blood: TNF α IC50
[4] = human whole blood, inhibition of LPS induced inflammation, read-out: IC50 TNFa
[5] = Homo sapiens, LPS 10 ng/ml, 18 h, read-out: Whole Blood: TGFβ IC50
[6] = human whole blood, inhibition of LPS induced inflammation, read-out: IC50 TGFbeta
[7] = Homo sapiens, LPS 10 ng/ml, 18 h, read-out: Whole Blood: IL-17F IC50
[8] = human whole blood, inhibition of LPS induced inflammation, read-out: IC50 IL-17F
[9] = Homo sapiens, LPS 10 ng/ml, 18 h, read-out: Whole Blood: IL-21 IC50
[10] = human whole blood, inhibition of LPS induced inflammation, read-out: IC50 IL-21
[11] = Homo sapiens, LPS 10 ng/ml, 18 h, read-out: Whole Blood: IFNγ IC50
[12] = human whole blood, inhibition of LPS induced inflammation, read-out: IC50 IFNγ

T1 sequence (P35968 20-1356): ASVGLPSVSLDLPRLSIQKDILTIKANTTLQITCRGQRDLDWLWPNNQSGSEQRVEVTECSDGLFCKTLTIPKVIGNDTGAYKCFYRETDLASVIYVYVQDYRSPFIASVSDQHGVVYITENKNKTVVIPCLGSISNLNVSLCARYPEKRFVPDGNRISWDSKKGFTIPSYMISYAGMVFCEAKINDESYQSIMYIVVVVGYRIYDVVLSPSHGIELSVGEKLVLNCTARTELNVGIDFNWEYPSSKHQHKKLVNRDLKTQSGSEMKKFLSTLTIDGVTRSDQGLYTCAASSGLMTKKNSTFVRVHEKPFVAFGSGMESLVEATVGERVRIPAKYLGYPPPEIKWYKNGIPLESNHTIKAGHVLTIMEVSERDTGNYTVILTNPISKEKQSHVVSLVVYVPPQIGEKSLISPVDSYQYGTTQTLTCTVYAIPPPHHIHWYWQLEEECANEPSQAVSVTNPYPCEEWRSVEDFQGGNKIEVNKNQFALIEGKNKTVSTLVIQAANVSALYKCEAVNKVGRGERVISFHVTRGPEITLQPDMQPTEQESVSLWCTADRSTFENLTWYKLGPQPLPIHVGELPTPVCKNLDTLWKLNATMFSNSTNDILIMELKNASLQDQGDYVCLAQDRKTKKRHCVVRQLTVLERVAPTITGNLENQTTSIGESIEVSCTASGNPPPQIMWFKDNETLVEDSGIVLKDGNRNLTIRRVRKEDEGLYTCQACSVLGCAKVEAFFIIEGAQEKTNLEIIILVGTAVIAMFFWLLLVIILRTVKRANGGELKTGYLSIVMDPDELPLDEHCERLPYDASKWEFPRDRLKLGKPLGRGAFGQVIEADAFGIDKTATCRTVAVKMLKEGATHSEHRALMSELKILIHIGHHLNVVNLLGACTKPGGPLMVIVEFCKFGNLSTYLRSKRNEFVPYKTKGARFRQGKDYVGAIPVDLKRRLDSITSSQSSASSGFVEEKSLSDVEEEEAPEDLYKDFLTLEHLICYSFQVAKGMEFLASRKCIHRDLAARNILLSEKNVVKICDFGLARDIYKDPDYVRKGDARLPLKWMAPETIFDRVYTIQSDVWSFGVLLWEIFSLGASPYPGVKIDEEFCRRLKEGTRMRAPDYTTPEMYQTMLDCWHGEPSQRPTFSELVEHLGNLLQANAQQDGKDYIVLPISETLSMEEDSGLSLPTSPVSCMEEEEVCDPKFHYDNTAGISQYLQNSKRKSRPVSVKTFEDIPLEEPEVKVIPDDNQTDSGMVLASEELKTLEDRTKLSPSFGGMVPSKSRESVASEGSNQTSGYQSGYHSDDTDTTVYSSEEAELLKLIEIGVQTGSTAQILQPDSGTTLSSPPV

| Compound | pIC50 (VEGFR-2) | pIC50 (GM-CSF; [1]) | pIC50 (GM-CSF; [2]) | pIC50 (TNF-alpha; [3]) | pIC50 (TNF-alpha; [4]) | pIC50 (TGF-beta; [5]) | pIC50 (TGF-beta; [6]) | pIC50 (IL-17F; [7]) | pIC50 (IL-17F; [8]) | pIC50 (IL-21; [9]) | pIC50 (IL-21; [10]) | pIC50 (IFN-gamma; [11]) | pIC50 (IFN-gamma; [12]) | further results |
| --- | --- | --- | --- | --- | --- | --- | --- | --- | --- | --- | --- | --- | --- | --- |
| O=C(O)Cc1cc(O)c(C(=O)Nc2ccccc2-c2nnn[nH]2)cc1O [IIIa-001aTz] | 6.15 | < 4.00 | 4.00 | 6.51 | 6.51 | < 4.00 | 4.00 | 6.80 | 6.80 | 5.52 | 5.52 | 4.72 | 4.72 | – |
| O=C(O)c1cc(NC(=O)c2cc(O)c(C(=O)Nc3ccc(O)c(C(=O)O)c3)cc2O)ccc1O [Ic-007a, 5-(4-(3-carboxy-4-hydroxyphenylaminocarbonyl)-2,5-dihydroxybenzamido)-2-hydroxy benzoic acid] | 7.05 | < 4.00 | 4.00 | 6.57 | 6.57 | < 4.00 | 4.00 | 4.64 | 4.64 | 5.72 | 5.72 | 5.84 | 5.84 | – |
| O=C(O)c1ccccc1CNC(=O)c1cc(O)cc(C(=O)O)c1O [IIa-053a, 3-(2-Carboxyphenylmethylaminocarbonyl)-2,5-dihydroxybenzoic acid] | 6.57 | < 4.00 | 4.00 | 7.70 | 7.70 | < 4.00 | 4.00 | 4.54 | 4.54 | < 4.00 | 4.00 | 5.98 | 5.98 | – |
| O=C(O)c1cc(NC(=O)c2cc(O)cc(C(=O)Nc3ccc(O)c(C(=O)O)c3)c2O)ccc1O [IIc-007a, 5-(3-(3-carboxy-4-hydroxyphenylaminocarbonyl)-2,5-dihydroxybenzamido)-2-hydroxy benzoic acid] | 6.36 | 4.59 | 4.59 | 7.52 | 7.52 | < 4.00 | 4.00 | 6.59 | 6.59 | 5.03 | 5.03 | 6.96 | 6.96 | – |
| O=C(O)c1cc(O)c(CN(Cc2cc(O)c(C(=O)O)cc2O)Cc2cc(O)c(C(=O)O)cc2O)cc1O [IIIc-061a, Tris(4-carboxy-2,5-dihydroxyphenylmethyl)amine] | 5.37 | 4.51 | 4.51 | 7.52 | 7.52 | < 4.00 | 4.00 | 6.49 | 6.49 | 5.20 | 5.20 | 5.61 | 5.61 | – |
| O=C(O)c1cc(O)c(C(=O)Nc2ccc(-c3nnn[nH]3)cc2)cc1O [Ia-003a-Tz, 4-(4-(1H-tetrazol-5-yl)phenyl-aminocarbonyl)-2,5-dihydroxybenzoic acid] | 5.19 | < 4.00 | 4.00 | 6.74 | 6.74 | < 4.00 | 4.00 | 4.08 | 4.08 | 5.83 | 5.83 | 5.53 | 5.53 | – |
| O=C(O)c1cc(O)c(C(=O)Nc2ccccc2-c2nnn[nH]2)cc1O [Ia-001a-Tz, 4-(2-(1H-tetrazol-5-yl)phenyl-aminocarbonyl)-2,5-dihydroxybenzoic acid] | 6.64 | < 4.00 | 4.00 | 6.20 | 6.20 | < 4.00 | 4.00 | 4.33 | 4.33 | < 4.00 | 4.00 | < 4.00 | 4.00 | – |
| O=C(O)c1cc(NC(=O)c2cc(O)c(C(=O)Nc3ccccc3-c3nnn[nH]3)cc2O)ccc1O [Ic-001a-Tz/004a, 5-(4-(2-(1H-tetrazol-5-yl)phenylaminocarbonyl)-2,5-dihydroxybenzamido)-2-hydroxy benzoic acid] | 5.59 | – | – | – | – | – | – | – | – | – | – | – | – | pIC50 (GM-CSF; Homo sapiens, 18 h, read-out: Whole Blood: GM-CSF IC50): 5.47; pIC50 (GM-CSF; Homo sapiens, read-out: IC50 GM-CSF): 5.47; pIC50 (TNF-alpha; Homo sapiens, 18 h, read-out: Whole Blood: TNF α IC50): 8.70; pIC50 (TNF-alpha; Homo sapiens, read-out: IC50 TNFa): 8.70; pIC50 (TGF-beta; Homo sapiens, 18 h, read-out: Whole Blood: TGFβ IC50): < 4.00; pIC50 (TGF-beta; Homo sapiens, read-out: IC50 TGFbeta): 4.00; pIC50 (IL-17F; Homo sapiens, 18 h, read-out: Whole Blood: IL-17F IC50): 5.62; pIC50 (IL-17F; Homo sapiens, read-out: IC50 IL-17F): 5.62; pIC50 (IL-21; Homo sapiens, 18 h, read-out: Whole Blood: IL-21 IC50): 6.52; pIC50 (IL-21; Homo sapiens, read-out: IC50 IL-21): 6.52; pIC50 (IFN-gamma; Homo sapiens, 18 h, read-out: Whole Blood: IFNγ IC50): 6.21; pIC50 (IFN-gamma; Homo sapiens, read-out: IC50 IFNγ): 6.21 |
| O=C(O)c1cc(O)c(C(=O)Nc2ccccc2S(=O)(=O)O)cc1O [Ia-001c, 2,5-dihydroxy-4-(2-sulfophenylaminocarbonyl)benzoic acid] | 5.48 | < 4.00 | 4.00 | 7.30 | 7.30 | < 4.00 | 4.00 | 4.05 | 4.05 | < 4.00 | 4.00 | 6.36 | 6.36 | – |
